Patent publication US20240426776A1, “RAPID DIFFERENTIATION OF ANTIBIOTIC-SUSCEPTIBLE AND -RESISTANT BACTERIA THROUGH MEDIATED EXTRACELLULAR ELECTRON TRANSFER” (priority 2021, published 2024)
In brackets after ≈: the same amount, converted by molar mass. Several values for one entry are separate records, joined by “and”; a condition that tells them apart may be missing. Identical values can stand only once. Like-named read-outs stand apart in the source and are kept apart here.

Experiments:
[1] = test system: Klebsiella pneumoniae (strains 34 and 115); experiment: microbe, parasite or virus in culture; conditions: for MIC: Klebsiella pneumoniae, MH media, 16-18 h, 37° C.
Method: Testing for S. aureus susceptibility to oxacillin differed with incubation at 30° C. for 18-24 h in MH media supplemented with 2% NaCl.
Values listed in Table 2 below include the estimated minimum inhibitory concentration from this study (μg/mL), the determination of(S) sensitive or (R) resistant microbes according to CLSI criteria, and the CLSI guidelines (μg/mL) for the species being tested. Empty cells were not evaluated.

[2] = test system: Klebsiella pneumoniae (strains 34 and 115); conditions: for ASIn (antibiotic susceptibility index), single replicates: imipenem 20× breakpoint (80 μg/mL), ASI20, 15 μM PMS, 0.1 OD600
Method: For initial quality control, cyclic voltammetry scan was recorded from 0.5 V to −0.5 V then back to 0.5 V using the potentiostat 13 configuration. The potentiostat controls the working electrode voltage relative to the reference electrode.
For antibiotic susceptibility experiments, the working electrode 6 was controlled at 0 VAg/AgCl. The current can also be measured and analyzed for determining resistance/susceptibility of pathogens to drugs (e.g., antibiotics) using other devices such as a multiplexer or any interface instrument that can receive one or more data inputs and forward it to an output for analysis and feedback. In particular, such one or more data inputs can be directed to a processor, signal processor, computer-based system, etc. and thereafter/correspondingly any such interface instrument can receive instructions from, such processing instruments as better detailed in the description for the embodiment of FIG. 14 below. It is also to be noted that any induced currents undergo a decision methodology that can be interpreted by such a configured processor, signal processor, computer-based system, etc. for aiding in the determination of antibiotic susceptibility/resistance, such as, the methodology better detailed in the description of FIG. 6 below.
Turning back to the discussion for FIG. 1B but also FIG. 1A, an initial baseline was established in the MH media, PMS, and antibiotic mixture for 50-60 min before inoculating the electrochemical cell with a bacteria cell 2. On placing the bacteria cell 2 (again see FIG. 1A) into the electrochemical cell 10, the bacteria cell 2 undergoes metabolic reactions and generates electrons 4 through metabolic processes, as was generally described above. […]
Tests disclosed in the example embodiments herein for the purpose of illustration were conducted with an inoculum of 0.1 OD600. A cell density equating to 0.1 OD600 was determined for each species by serial dilution. […] The colony forming units per mL (CFU/mL) were quantified using a drop plate method as known to those skilled in the art. […]

[3] = test system: Escherichia coli (strains 61 and 77); conditions: cited from earlier work
[4] = test system: Acinetobacter baumannii (strains 35, 78, 83, and 102); conditions: cited from earlier work
[5] = test system: Staphylococcus aureus (strains 29213 and 43300); experiment: READAS electrochemical current response with PMS mediator (ASIn); format: cell-based; conditions: for ASIn (antibiotic susceptibility index), single replicates: tobramycin 10× breakpoint (160 μg/mL), ASI10, 15 μM PMS, 0.1 OD600
Method: Each measurement was replicated at least four times.
(S. aureus experiments) or 37° C. (all others) MH media.
The current responses measured follows a sigmoidal curve structure.
As a second example method of operation, the S. aureus strains selected from Table 2 were assessed. Initially, a 2×CLSI resistance breakpoint concentrations for two antibiotics oxacillin (12 μg/mL) and tobramycin (32 μg/mL) were used for the example method of operation. The ASI2<0.4 and it was concluded that the concentration of the antibiotics was insufficient to classify the strains as antibiotic-susceptible or -resistant. S. aureus was then treated with 4×, 6×, 8×, 10×, and 20× the breakpoint concentration of oxacillin and was compared to the control as depicted in FIG. 8A. […] S. aureus was also treated with 4× and 10× the breakpoint concentration of tobramycin and was compared to the control depicted in FIG. 8B. […] The efficacy of antibiotic was proportional to the concentration when a high cell density (1.1×10^8 CFU/mL) was used.
The ASIn analysis time for classifying the strains as resistant or susceptible for tobramycin treatment was 33-78 min which was 30 min less than needed for detecting oxacillin susceptibility which required 60-96 min.

C[C@@H](O)[C@H]1C(=O)N2C(C(=O)O)=C(SCCN=CN)C[C@H]12 [Imipenem, imipenem]
MIC ([1]; read-out: estimated minimum inhibitory concentration from this study, strain 34): 2 µg/mL (≈ 6.68 µM) | MIC ([1]; read-out: estimated minimum inhibitory concentration from this study, strain 115): 64 µg/mL (≈ 214 µM) | sensitive or resistant according to CLSI criteria ([1]; strain 34): S | sensitive or resistant according to CLSI criteria ([1]; strain 115): R | ASIn (antibiotic susceptibility index), single replicates ([2]; strain 34 (susceptible)): 0.56 and 0.88 and 0.67 and 0.58 | average ASI20 (±SE) ([2]; strain 115 (resistant), imipenem 20× (80 μg/mL)): 0.28±0.08 | ASIn (antibiotic susceptibility index), single replicates ([2]; strain 115 (resistant)): 0.32 and 0.47 and 0.18 and 0.17

NC[C@H]1O[C@H](O[C@H]2[C@H](O)[C@@H](O[C@H]3O[C@H](CO)[C@@H](O)[C@H](N)[C@H]3O)[C@H](N)C[C@@H]2N)[C@H](N)C[C@@H]1O [Tobramycin, tobramycin]
CLSI guidelines (resistance breakpoint) for the species [3]: 16 µg/mL | CLSI guidelines (resistance breakpoint) for the species [4]: 16 µg/mL | current response with increasing antibiotic concentration ([5]; oxacillin 4×, 6×, 8×, 10×, 20× breakpoint (FIG. 8A), tobramycin 4× and 10× (FIG. 8B), […]10^8 CFU/mL): decreased the current magnitude to ASIn≥0.4 and increased the response time | ASIn (antibiotic susceptibility index), single replicates ([5]; strain 29213 (susceptible)): 0.52 and 0.6 and 0.16 and 0.34 | average ASI10 (±SE) ([5]; strain 43300 (resistant), tobramycin 10× (160 μg/mL)): −0.10±0.14 | ASIn (antibiotic susceptibility index), single replicates ([5]; strain 43300 (resistant)): 0.12 and −0.01 and −0.42
